Test results taken from PubChem BioAssay AID1963868 (Molecular Pharmacology Branch, DTP, NCI, 2024).

System: KRAS PDC tumor spheroids (HUVEC+MSC), viability
Test: Anticancer human tumor 254851-301-R-J1-PDC patient-derived colon carcinoma cell line growth inhibition [KRAS2]
Conditions: for IC50: curve of first compound; for viability, T/C: stronger effect = lower value
Excerpt: Multicellular complex tumor spheroid response to RAS pathway inhibitors in combination with a targeted agents in patient-derived cell lines with oncogenic KRAS variants from multiple cancer types
A high-throughput screen of multi-cell type tumor spheroids was designed to identify active combinations of targeted small molecules and KRAS pathway inhibitors. Complex spheroids include a stromal component modeled by human endothelial cells (HUVEC) and fibroblasts modeled by human mesenchymal stem cells (MSCs). The concentration ranges selected for each drug and investigational agent were based upon clinically achievable concentrations if the clinical Cmax of the agent was known.
Compounds. The drugs and investigational agents: BI-3406 (NSC825286), BAY-293 (NSC824723), batoprotafib (TNO155; NSC825523), sotorasib (AMG 510; NSC818433), MRTX1257 (NSC819558), elimusertib (BAY 1895344; NSC800525), molibresib (GSK525762; NSC774829), temuterkib (LY3214996; NSC803410), venetoclax (NSC766270), alisertib (NSC759677), olaparib (NSC753686), talazoparib (NSC767125), erdafitinib (NSC781556), ipatasertib (NSC767898), cabozantinib (NSC761068), nintedanib (NSC756659), abemaciclib (NSC768073), docetaxel (NSC628503), trametinib (NSC758246), and sapanisertib (NSC764658) were obtained from the National Cancer Institute (NCI) Developmental Therapeutics Program Chemical Repository. The FDA-approved anticancer drug set is available from the Developmental Therapeutics Program. […] The stock solutions were prepared in dimethyl sulfoxide (DMSO, Sigma-Aldrich, St. Louis, MO, cat. D2650) at 800-fold the tested concentration and stored at -70 degrees C prior to their use. All drugs and investigational agents were tested over a range starting from a high concentration at or near the clinical Cmax and decreasing in half-log increments. If the clinical Cmax for an agent had not been determined, the highest concentration tested was 10 microM.
Cell Culture. All cells were maintained in an incubator at 37 degrees C and 5% CO2 with 95% humidity. The PDC lines were cultured according to standard operating procedures established by the NCI PDMR (https://pdmr.cancer.gov/sops/default.htm). Briefly, all PDCs were thawed and cultured in Matrigel-coated flasks prepared with a working solution of 1X Ham's F-12 nutrient mix, without supplementation (Invitrogen, Waltham, MA, cat. 11765054), 100 U/mL penicillin-streptomycin (Invitrogen, cat. 15140122), and 2.5% Matrigel (Corning Inc., Corning, NY, cat. 354248) for the first three passages. All PDCs were cultured in complete DMEM/F-12 media containing advanced DMEM/F-12 (Invitrogen, cat. 12634028), 4.9% defined fetal bovine serum, heat inactivated (HyClone Laboratories Inc., Logan, UT, cat. SH30070.03HI), 389 ng/mL hydrocortisone (Sigma-Aldrich, cat. H4001), 9.7 ng/mL human EGF recombinant protein (Invitrogen, cat. PHG0313), 23.4 microg/mL adenine (Sigma-Aldrich, cat. A2786), 97.3 U/mL penicillin-streptomycin (Invitrogen, cat. 15140122), 1.9 mM L-glutamine (Invitrogen, cat. 25030081), and 9.7 microM Y-27632 dihydrochloride (Tocris Bioscience, Bristol, United Kingdom, cat. 1254). The PDCs were cultured in complete DMEM/F12 media without 9.7 microM Y-27632 dihydrochloride for at least two passages prior to the screen. The established cell line HOP-62 was cultured in RPMI 1640 medium, HEPES (Invitrogen, cat. 22400105) with 10% defined fetal bovine serum (HyClone Laboratories Inc., cat. SH30070.03) and 2 mM L-glutamine (Invitrogen, cat. 25030081). The pooled donor HUVEC were cultured in endothelial cell growth medium 2 (PromoCell, Heidelberg, Germany, cat. C-22011) and the hMSC were cultured in mesenchymal stem cell growth medium 2 (PromoCell, cat. C-28009). For all experiments, HUVEC and hMSC were used at passages </=5, while the malignant cell lines were used at passages </=15. […]
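Further: spheroids exposed to compounds for seven days before readout.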
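Wherever viability, T/C is given: 100% = DMSO vehicle control luminescence of the spheroids.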

CC(=O)Nc1cccc(-n2c(=O)n(C3CC3)c(=O)c3c(Nc4ccc(I)cc4F)n(C)c(=O)c(C)c32)c1 + C=CC(=O)N1CCN(c2nc(=O)n(-c3c(C)ccnc3C(C)C)c3nc(-c4c(O)cccc4F)c(F)cc23)C(C)C1
IC50 (second compound 0.1 µM): 6.27 nM | IC50 (second compound 0.316 µM): 5.14 nM | IC50 (second compound 1 µM): 6.52 nM | IC50 (second compound 3.16 µM): 6.44 nM | IC50 (second compound 10 µM): 5.08 nM | viability, T/C (second compound 0.1 µM, first compound 0.0001 µM): 104% | viability, T/C (second compound 0.1 µM, first compound 0.000316 µM): 105% | viability, T/C (second compound 0.1 µM, first compound 0.001 µM): 89.5% | viability, T/C (second compound 0.1 µM, first compound 0.00316 µM): 84.4% | viability, T/C (second compound 0.1 µM, first compound 0.01 µM): 27.2% | viability, T/C (second compound 0.1 µM, first compound 0.0316 µM): 3.31% | viability, T/C (second compound 0.316 µM, first compound 0.0001 µM): 102% | viability, T/C (second compound 0.316 µM, first compound 0.000316 µM): 103% | viability, T/C (second compound 0.316 µM, first compound 0.001 µM): 87.9% | viability, T/C (second compound 0.316 µM, first compound 0.00316 µM): 77.4% | viability, T/C (second compound 0.316 µM, first compound 0.01 µM): 13% | viability, T/C (second compound 0.316 µM, first compound 0.0316 µM): 3.29% | viability, T/C (second compound 1 µM, first compound 0.0001 µM): 102% | viability, T/C (second compound 1 µM, first compound 0.000316 µM): 96.6% | viability, T/C (second compound 1 µM, first compound 0.001 µM): 93.9% | viability, T/C (second compound 1 µM, first compound 0.00316 µM): 74.3% | viability, T/C (second compound 1 µM, first compound 0.01 µM): 35.5% | viability, T/C (second compound 1 µM, first compound 0.0316 µM): 3.32% | viability, T/C (second compound 3.16 µM, first compound 0.0001 µM): 98.5% | viability, T/C (second compound 3.16 µM, first compound 0.000316 µM): 99.4% | viability, T/C (second compound 3.16 µM, first compound 0.001 µM): 85.1% | viability, T/C (second compound 3.16 µM, first compound 0.00316 µM): 77% | viability, T/C (second compound 3.16 µM, first compound 0.01 µM): 34% | viability, T/C (second compound 3.16 µM, first compound 0.0316 µM): 3.35% | viability, T/C (second compound 10 µM, first compound 0.0001 µM): 105% | viability, T/C (second compound 10 µM, first compound 0.000316 µM): 105% | viability, T/C (second compound 10 µM, first compound 0.001 µM): 96.9% | viability, T/C (second compound 10 µM, first compound 0.00316 µM): 75% | viability, T/C (second compound 10 µM, first compound 0.01 µM): 14.6% | viability, T/C (second compound 10 µM, first compound 0.0316 µM): 3.11%
